Drawing on paper PMC9953561, “Five Post-Translational Modification Residues of CmPT2 Play Key Roles in Yeast and Rice” (International Journal of Molecular Sciences, 2023), this text covers Km for one compound.

The test system of this assay is CmPT2 (CmPht1;2). As to conditions: labelled compound; H+ co-transporter; whole yeast cells; pH of uptake assay not stated.

On to `O=P(O)(O)O` [phosphate], for which the Km (commonly the concentration of substrate that gives half-maximal velocity) is 65.7 µM.
